Test results published in patent US20230060425A1, “FUSED BICYCLIC HETEROCYCLE DERIVATIVES AS PESTICIDES” (Bayer Aktiengesellschaft, priority 2019, published 2023).

Experiments:
Assay type in all cases: in vivo
Myzus persicae [1] = assay: Myzus persicae spray test; settings: foliar, 120 h, application rate 100 g/ha, Chinese cabbage leaf discs, after 5 days, read-out: efficacy
Procedure, shortened: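 Chinese cabbage leaf discs infested with all stages of Myzus persicae were sprayed with compound in acetone/DMF, diluted in water containing 1000 ppm emulsifier. Efficacy in % assessed after 5 days: 100% all aphids killed, 0% none killed.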

Boophilus microplus = Boophilus microplus injection test; settings: application rate 20 μg/animal, after 7 days, laying of fertile eggs
Protocol: Boophilus microplus—Injection Test
(§1) Solvent: Dimethyl sulfoxide
To produce a suitable active compound formulation, 10 mg of active compound are mixed with 0.5 ml of solvent and the concentrate is diluted to the desired concentration with solvent.
1 μl of the active compound solution is injected into the abdomen of 5 engorged adult female cattle ticks (Boophilus microplus). The animals are transferred into dishes and kept in a climate-controlled room.
Efficacy is assessed after 7 days by laying of fertile eggs. Eggs which are not visibly fertile are stored in a climate-controlled cabinet until the larvae hatch after about 42 days. An efficacy of 100% means that none of the ticks has laid any fertile eggs; 0% means that all the eggs are fertile.

Phaedon cochleariae = Phaedon cochleariae spray test; settings: foliar, 168 h, application rate 100 g/ha, Chinese cabbage leaf discs, after 7 days, read-out: efficacy
Procedure, shortened: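 Chinese cabbage leaf discs sprayed with compound formulated in acetone/DMF and emulsifier-containing water, then infested with mustard beetle larvae after drying. Efficacy read after 7 days as % larvae killed.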

Spodoptera frugiperda = Spodoptera frugiperda spray test; settings: foliar, 168 h, application rate 100 g/ha, maize leaf discs, after 7 days, read-out: efficacy
Protocol: Spodoptera frugiperda—Spray Test
Solvent: • 78.0 parts by weight of acetone • 1.5 parts by weight of dimethylformamide
Emulsifier: alkylaryl polyglycol ether
To produce further test concentrations, the formulation is diluted with emulsifier-containing water.
After 7 days, the efficacy in % is determined. 100% means that all the caterpillars have been killed; 0% means that no caterpillar has been killed.

Lucilia cuprina = Lucilia cuprina test; settings: application rate 100 ppm; L1 larvae; after 2 days
Protocol: as §1
To produce a suitable active compound formulation, 10 mg of active compound are mixed with 0.5 ml of dimethyl sulfoxide, and the concentrate is diluted with water to the desired concentration.
About 20 L1 larvae of the Australian sheep blowfly (Lucilia cuprina) are transferred into a test vessel containing minced horsemeat and the active compound formulation of the desired concentration.
After 2 days, the kill in % is determined. 100% means that all the larvae have been killed; 0% means that no larvae have been killed.

Myzus persicae [2] = assay: Myzus persicae oral test; settings: 120 h, application rate 4 ppm, after 5 days, read-out: efficacy
Procedure, shortened: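 Aphid feeding test: compound dissolved in acetone, diluted with water and mixed with IPL41 insect medium plus sugar, offered through parafilm to a mixed population of green peach aphids. Mortality scored after 5 days as % efficacy (100% = all aphids dead, 0% = none dead).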

Ctenocephalides felis = Ctenocephalides felis oral test; settings: 48 h, application rate 100 ppm, in citrated cattle blood, after 2 days, read-out: efficacy (kill in %)
Procedure, shortened: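 Adult unfed cat fleas (~20 per chamber) fed through parafilm membrane on citrated cattle blood containing compound (DMSO formulation diluted in blood to test concentration). Kill (%) scored after 2 days; 100% = all fleas dead, 0% = none.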

Structure (SMILES): CCS(=O)(=O)c1c(-c2nc3cc(C(F)(F)F)cnc3n2C)ncc2cc(Cl)ccc12 [Example I-010]
- pest or weed control at 100 g/ha (Myzus persicae [1]): 100%
- efficacy (Boophilus microplus): 80%
- pest or weed control at 100 g/ha (Phaedon cochleariae): 100%
- pest or weed control at 100 g/ha (Spodoptera frugiperda): 100%
- efficacy (kill in %) (Lucilia cuprina): 100%
- pest or weed control at 4 ppm (Myzus persicae [2]): 100%
- pest or weed control at 100 ppm (Ctenocephalides felis): 100%
